Experiments:
SETVI [1] = experiment: Pre-emergence action at 320 g/ha against SETVI; assay type: in vivo, Setaria viridis; details: visual scoring after about 3 weeks vs untreated controls
Outline: (§1)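 WP/EC formulations applied pre-emergence to covering soil, water rate 600 l/ha, 0.5% additive. Greenhouse, ~3 weeks. Visual % damage vs untreated (0–100%).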

DIGSA = experiment: Pre-emergence action at 320 g/ha against DIGSA; assay type: in vivo, Digitaria sanguinalis; details: visual scoring after about 3 weeks vs untreated controls
Outline: as §1

ALOMY = experiment: Pre-emergence action at 320 g/ha against ALOMY; assay type: in vivo, Alopecurus myosuroides; details: scored visually after about 3 weeks vs untreated controls (100% = plants have died)
Outline: as §1

ECHCG = experiment: Pre-emergence action against ECHCG, 1280 g/ha; assay type: in vivo, Echinochloa crus-galli; details: visual scoring after about 3 weeks vs untreated controls, 100% = plants have died, 0% = like control plants
Outline: (§2)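 Pre-emergence pot test: seeds in sandy loam, soil-covered, sprayed on soil surface (WP/EC, 0.5% additive, 600 L/ha water); greenhouse ~3 wk; visual % effect vs untreated, 0–100%.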

POAAN [2] = experiment: Pre-emergence action against POAAN, 1280 g/ha; assay type: in vivo, Poa annua; details: visual scoring after about 3 weeks vs untreated controls, 100% = plants have died, 0% = like control plants
Outline: as §2

MATIN [3] = experiment: Pre-emergence action against MATIN, 1280 g/ha; assay type: in vivo, Tripleurospermum inodorum (Matricaria inodora); details: scored visually after about 3 weeks vs untreated controls (100% = plants have died)
Outline: as §2

SETVI [4] = experiment: Pre-emergence action against SETVI, 1280 g/ha; assay type: in vivo, Setaria viridis; details: visual scoring after about 3 weeks vs untreated controls, 100% = plants have died, 0% = like control plants
Outline: as §2

STEME = experiment: Pre-emergence action against STEME, 1280 g/ha; assay type: in vivo, Stellaria media; details: scored visually after about 3 weeks vs untreated controls (100% = plants have died)
Outline: as §2

MATIN [5] = experiment: Pre-emergence action at 320 g/ha against MATIN; assay type: in vivo, Tripleurospermum inodorum (Matricaria inodora); details: visual scoring after about 3 weeks vs untreated controls
Outline: as §1

AMARE [6] = experiment: Pre-emergence action against AMARE, 1280 g/ha; assay type: in vivo, Amaranthus retroflexus; details: scored visually after about 3 weeks vs untreated controls (100% = plants have died)
Outline: as §2

POLCO = experiment: Pre-emergence action at 320 g/ha against POLCO; assay type: in vivo, Fallopia convolvulus (Polygonum convolvulus); details: visual scoring after about 3 weeks vs untreated controls
Outline: as §1

POAAN [7] = experiment: Post-emergence action against POAAN, 1.28 kg/ha; assay type: in vivo, Poa annua; details: dosage 1280 g/ha, visual rating about 3 weeks after treatment vs untreated controls
Outline: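 Post-emergence greenhouse spray, one-leaf stage (2–3 wk after sowing), sandy loam. WP/EC, aqueous + 0.5% additive, 600 L/ha water. Visual % activity vs untreated, ~3 wk after treatment; 100% = plants dead.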

AMARE [8] = experiment: Pre-emergence action at 320 g/ha against AMARE; assay type: in vivo, Amaranthus retroflexus; details: visual scoring after about 3 weeks vs untreated controls
Outline: as §1

Compound	Pre-emergence action against SETVI in % (SETVI [1]) [%]	Pre-emergence action against DIGSA in % (DIGSA) [%]	Pre-emergence action at 320 g/ha against ALOMY in % (ALOMY) [%]	Pre-emergence action against ECHCG (ECHCG) [%]	Pre-emergence action against POAAN (POAAN [2]) [%]	Pre-emergence action against MATIN (MATIN [3]) [%]	Pre-emergence action against SETVI (SETVI [4]) [%]	Pre-emergence action against STEME (STEME) [%]	Pre-emergence action against MATIN in % (MATIN [5]) [%]	Pre-emergence action against AMARE (AMARE [6]) [%]	Pre-emergence action against POLCO in % (POLCO) [%]	Post-emergence action against POAAN (POAAN [7]) [%]	Pre-emergence action against AMARE in % (AMARE [8]) [%]
COC(=O)CNC(=O)COc1nn(-c2ccccc2F)c(-c2ccc(F)nc2)c1C(F)(F)F [Example X-007]	100	100	100	100	100	100	100	100	100	100	90	100	100
C[C@@H](Oc1nn(-c2ccccc2F)c(-c2cncnc2)c1Br)C(=O)O [VI-012]	100	100	90	90	100	90	100	100	90	100	80	100	100
COC(=O)[C@@H](C)Oc1nn(-c2ccccc2)c(-c2cncnc2)c1Br [VI-013]	100	100	90	100	100	90	100	100	90	100	90	100	90
COC(=O)[C@@H](C)Oc1nn(-c2ccccc2)c(-c2cccnc2)c1Br [VII-008]	100	90	100	100	100	100	100	100	100	100	100	100	100
COC(=O)COc1nn(-c2ccc(F)cc2)c(-c2cccnc2)c1Br [VII-028]	100	90	100	100	100	100	100	100	80	90	90	90	90

— patent US12180187B2, “1-phenyl-5-azinylpyrazolyl-3-oxyalkyl acids and their use for controlling unwanted plant growth” (BAYER AKTIENGESELLSCHAFT, priority 2019, dated 2024)
